Test results taken from patent publication US10238670B2, “9-aminomethyl minocycline compounds and methods of use thereof in urinary tract infection (UTI) treatment” (Paratek Pharmaceuticals, Inc., priority 2016, dated 2019).

What was measured:
[1] = system: S. saprophyticus; experiment: In vitro activity in urine relative to standard media; assay type: cell-based
[2] = system: E. coli FQS; experiment: In vitro MIC, 2010 surveillance isolates; assay type: cell-based, Escherichia coli; conditions: N=2906
[3] = system: E. coli isolates, including ESBL+ and quinolone resistance phenotypes; experiment: In vitro MIC, 2010 surveillance study of 4171 E. coli isolates; assay type: cell-based
[4] = In vitro plasma protein binding (ultrafiltration), monkey plasma; assay type: in vitro ADME, monkey (Cynomolgus); conditions: 10-10,000 ng/mL, mean±SD, read-out: mean unbound protein fraction (fu) in plasma
Protocol: (§1) For human binding studies, plasma was obtained from the blood of three healthy male volunteers. Plasma was defrosted from storage at -20° C. before use, and pools of human plasma were used for all studies. Plasma from mouse, rat, and monkey was supplied by Harlan Laboratories Ltd. (Netherlands), Milan […], Switzerland) and Centre de Primatologie ULP (France), respectively. Protein binding was measured using an ultrafiltration method. To asses the suitability of ultrafiltration, the recovery and free permeation of [^14C]-labelled Compound 1 in PBS buffer were investigated. […] Three 1 mL aliquots per concentration were introduced into […]® devices and spun for 1 min at 2000 g (filtrate ≤500 μL). Samples of the spiked solutions, the filtrate and retentate were quantified by LSC; volumes were determined by weighing. The free permeation of the test compound in PBS was evaluated as follows: Ratio=[Cuf/Cr] with Cuf being the concentration in the ultrafiltrate (ng/mL) and Cr the concentration in the retentate (ng/mL). […] Specifically, concentrations of Compound 1 was determined by an UPLC-MS/MS method. […] Standards and quality control samples were prepared on the day of analysis by adding a 20 μL aliquot of an appropriate standard or QC spiking solution in methanol. A 25 μL aliquot of the internal standard (at 200 ng/mL in methanol) was added to each well except blanks. […] Samples were processed using protein precipitation. A 0.5 mL aliquot of an acetonitrile/ethanol/acetic acid mixture (90:10:0.1, v:v:v) was added to each sample; samples were mixed using a vortex mixer for 10 minutes, and centrifuged 3800 rpm (approximately 2500×g) for 10 min at 10° C. […] The ions monitored for Compound 1 was the parent [M+H]^+ ion at m/z 557.3.0; the product ions at m/z 453.4. […] The quantification was performed using Analyst software and Watson LIMS version 7.2.0.01. Concentrations in QC and study samples were calculated from the resulting peak area ratios and interpolation from the regression equations of the respective calibration curves. The lower limit of quantitation was 5.0 ng/mL for Compound 1.

[5] = system: plasma proteins; experiment: as above; assay type: in vitro ADME, monkey (Cynomolgus); conditions: 10-10,000 ng/mL
Protocol: as §1

[6] = system: P. mirabilis; experiment: In vitro MIC, 2010 surveillance isolates; assay type: cell-based; conditions: N=384
[7] = Phase 1 studies, plasma pharmacokinetics (IV and oral)
[8] = complicated skin and skin structure infection; cited from earlier work
[9] = system: E. coli (ATCC 25922) biofilm; experiment: MBEC assay, planktonic adhesion to 6, 12, 24 hour biofilms under sub-MIC treatment; assay type: cell-based, Escherichia coli
Protocol: The MBEC™ assay (formerly the Calgary biofilm device; Innovotech Inc., Canada) is a well-established high throughput assay for assessment of anti-biofilm activity of test agents in a 96-well format. Within this assay, the biofilm is formed on the plastic pegs of the plate lid. After inoculated media is introduced to the wells of the 96-well plate, the plate is placed in a shaking incubator to generate the necessary shear force for biofilm growth on the pegs. Following a suitable incubation time, the individual biofilms can be treated with varying concentrations of test agents (challenge plate). After the desired treatment time, the remaining biofilm-associated bacteria are retrieved from the pegs through sonication (recovery plate). Serial dilution and/or plating of the recovered bacterial suspension allow for the quantification of test agents' efficacy against pre-formed biofilms. Additionally, readout of the challenge plate from the biofilm treatment can be used to determine MIC values of test agents. The absence of growth in the recovery plate indicates complete biofilm eradication and the lowest concentration of a test agent that achieves this is designated as the minimum biofilm eradication concentration (MBEC). […]

[10] = system: Ind+ Proteus spp; experiment: In vitro MIC, 2010 surveillance isolates; assay type: cell-based; conditions: N=258

For `CN(C)c1cc(CNCC(C)(C)C)c(O)c2c1C[C@H]1C[C@H]3[C@H](N(C)C)C(O)=C(C(N)=O)C(=O)[C@@]3(O)C(O)=C1C2=O` [Compound 1, 9-[(2,2-dimethyl-propylamino)-methyl]-minocycline], the “activity in urine relative to standard media” value [1] was “stable”, the “Cumulative % Inhibition at MIC” value ([2]; MIC 1 μg/ml) was 87.0% and the “Cumulative % Inhibition at MIC” value ([2]; MIC 2 μg/ml) was 96.6%. For the same compound, the “Cumulative % Inhibition at MIC” value ([2]; MIC 4 μg/ml) was 99.6%, the “Cumulative % Inhibition at MIC” value ([2]; MIC 8 μg/ml) was 99.9% and the “Cumulative % Inhibition at MIC” value ([2]; MIC 16 μg/ml) was 99.9%. For the same compound, the “Cumulative % Inhibition at MIC” value ([2]; MIC ≤0.5 μg/ml, listed as head image P00007) was 58.5%, the “Cumulative % Inhibition at MIC” value ([2]; MIC ≥32 μg/ml) was 100% and the “isolates with an MIC value <4 μg/mL” value [3] was > 97%. The fraction unbound [4] was 0.788 ± 0.0726, the “Mean (SD) Bound Fraction” value [5] was 21.2 (7.26) % and the “mean unbound protein fraction (fu) in plasma” value ([5]; mean±SD) was 78.8±7.3%. For the same compound, the “Cumulative % Inhibition at MIC” value ([6]; MIC 1 μg/ml) was 0.3%, the “Cumulative % Inhibition at MIC” value ([6]; MIC 2 μg/ml) was 1.3% and the “Cumulative % Inhibition at MIC” value ([6]; MIC 4 μg/ml) was 5.7%. For the same compound, the “Cumulative % Inhibition at MIC” value ([6]; MIC 8 μg/ml) was 22.9%, the “Cumulative % Inhibition at MIC” value ([6]; MIC 16 μg/ml) was 56.8% and the “Cumulative % Inhibition at MIC” value ([6]; MIC ≤0.5 μg/ml) was 0%. The “Cumulative % Inhibition at MIC” value ([6]; MIC ≥32 μg/ml) was 100%, the “bioequivalence of tablet and IV dose” value ([7]; 300 mg dose of tablet) was “bioequivalent to a 100 mg IV dose” and the half-life ([7]; human, in vivo) was ~18 h. For the same compound, the Cmax ([7]; human, in vivo, iv, 100 mg) was ~1800 ng/mL, the “exposure based on plasma concentrations, higher at steady-state than after a single dose” value ([7]; steady state vs single dose) was “approximately 50%” and the “steady state AUC (IV and oral) and Cmax (oral) relative to single IV or oral dose” value ([7]; steady state vs single dose) was “approximately 1.5 ×”. The “clinical efficacy and tolerability” value [8] was “comparable to linezolid”, the “reduction in total biofilm-associated bacteria relative to controls” value ([9]; 24 hour biofilms, 4% of the MIC (0.046 μg/mL), planktonic bacteria present) was “reduced by about a log” and the “adhesion of planktonic bacteria to biofilms” value ([9]; sub-MIC concentrations, 6, 12, 24 hour biofilms) was “do not promote additional adhesion of planktonic bacteria”. The “Cumulative % Inhibition at MIC” value ([10]; MIC 1 μg/ml) was 0.8%, the “Cumulative % Inhibition at MIC” value ([10]; MIC 2 μg/ml) was 3.1% and the “Cumulative % Inhibition at MIC” value ([10]; MIC 4 μg/ml) was 26.0%. The “Cumulative % Inhibition at MIC” value ([10]; MIC 8 μg/ml) was 58.1%, the “Cumulative % Inhibition at MIC” value ([10]; MIC 16 μg/ml) was 73.3% and the “Cumulative % Inhibition at MIC” value ([10]; MIC ≤0.5 μg/ml) was 0%. The “Cumulative % Inhibition at MIC” value ([10]; MIC ≥32 μg/ml) was 100%.
